Assays:
[1] = test system: Cytokine 12 Panel; assay: Cytokine 12 panels after IV dose of 50 mg synthetic Fibrinopeptide A; type: in vivo, human; set-up: IL-10 / TNF-α / IL-2 / IL-12: unit not given here; settings: for IFN-γ / IL-4 / IL-5 / IL-6 / IL-8 / IL-13: nl: 0-5; for IL-12: nl: 0-6; for IL-2: nl: 0-12; for IL-10: nl: 0-18; for TNF-α: nl: 0-22; for IL-1β: nl: 0-36; for IL-2R: nl: 0-1033
Description: Peptide was suspended in an appropriate medium and a healthy volunteer took the preparation daily for two weeks, drawing blood for a cytokine 12 panel every five days. Due to the size of the molecules absorption from the mucosal route seemed unlikely, and the rapid digestion of peptides in the stomach would eliminate their efficacy in a true oral route. This same healthy volunteer had lab work drawn right before receiving an IV dose of synthetic Fibrinopeptide A. The IV dose was expected to have a more profound therapeutic effect, since treatment was simulating a normal intravascular biologic process. […] (Table 3). [table] In addition to these elevations, a mild elevation of Interleukin-6 was also observed. Interleukin-6 is a pro-inflammatory cytokine and is a very strong stimulator of the innate immune system. […] The most significant of these tests is the blood drawn one month after the IV dose was given. In this test the marked elevation of at least IL-10 and IL-1β, which had been present in each of the other dosages given by any route, was observed. […] This location for primary activity also explains the stimulation of the adaptive immune system over the innate immune response, as the lymphatic system is more involved in the adaptive response, while the vascular system is more involved in the innate response. The response to orally administered Fibrinopeptide A also solidifies this location of activity as transmucosal absorption occurs almost exclusively through the lymphatic route, occurs rapidly for those molecules which are absorbed, and the oral submucosal region (especially the sublingual region) has an extensive lymphatic drainage with rapid access to the cells which would produce this type of response while at least partially being shielded from the enzymes that inactivate the peptides of this invention. Since chronic fibrin deposition in the extravascular space is always pathologic and pro-inflammatory, it is not surprising that patients have a mechanism triggered by this deposition to aid in the removal of these substances. […] By signaling the need for removal from the extravascular space, the same process should occur for similar chronic deposits in the subintimal space.

[2] = test system: Ponto Toro Virus; type: in vivo, mice; settings: Ponto Toro infection, one dose; placebo group 25% survived
[3] = test system: Cytokine 12 Panel; assay: Cytokine 12 panels following oral administration of FPA (Table 6); type: in vivo, human; set-up: IL-12 / IL-10 / TNF-α / IL-2: unit not given here; settings: for IFN-γ / IL-4 / IL-5 / IL-6 / IL-8 / IL-13: nl: 0-5; for IL-12: nl: 0-6; for IL-2: nl: 0-12; for IL-10: nl: 0-18; for TNF-α: nl: 0-22; for IL-1β: nl: 0-36; for IL-2R: nl: 0-1033
Description: One of these patients was the same patient previously utilized, while the other was relatively neve to any previous Fibrinopeptide A treatment. The patient had taken two doses orally approximately seven weeks prior to this treatment, no lab work had been obtained with this prior dosing. […] This again elucidates the lack of effect of Fibrinopeptide A when given IV and the importance of utilizing a lymphatic route when treating with Fibrinopeptide A, and probably the others as well. [table] The data in table 6 further illustrates the up regulation of all aspects of the immune system in response to this persistent exposure to synthetic activated fibrinopeptide A through a lymphatic administration.

[4] = 2 weeks back on FPA (different carrier)

ADSGEGDFLAEGGGV (listed as Homo sapiens) [Fibrinopeptide A]
IFN-γ ([1]; 10 Hours after IV 50 mg): <5
IL-4 ([1]; 10 Hours after IV 50 mg): <5
IL-5 ([1]; 10 Hours after IV 50 mg): <5
IL-6 ([1]; 10 Hours after IV 50 mg): 11
IL-8 ([1]; 10 Hours after IV 50 mg): <5
IL-12 ([1]; 10 Hours after IV 50 mg): <5
IL-2 ([1]; 10 Hours after IV 50 mg): <5
IL-10 ([1]; 10 Hours after IV 50 mg): 87
TNF-α ([1]; 10 Hours after IV 50 mg): <5
IL-1β ([1]; 10 Hours after IV 50 mg): 52
IL-2R ([1]; 10 Hours after IV 50 mg): 475
IFN-γ ([1]; 14 hours after IV 50 mg): <5
IL-4 ([1]; 14 hours after IV 50 mg): <5
IL-5 ([1]; 14 hours after IV 50 mg): <5
IL-6 ([1]; 14 hours after IV 50 mg): 10
IL-8 ([1]; 14 hours after IV 50 mg): <5
IL-12 ([1]; 14 hours after IV 50 mg): <5
IL-2 ([1]; 14 hours after IV 50 mg): <5
IL-10 ([1]; 14 hours after IV 50 mg): 87
TNF-α ([1]; 14 hours after IV 50 mg): <5
IL-1β ([1]; 14 hours after IV 50 mg): 54
IL-2R ([1]; 14 hours after IV 50 mg): 492
IFN-γ ([1]; 60 hours after IV 50 mg): <5
IL-4 ([1]; 60 hours after IV 50 mg): <5
IL-5 ([1]; 60 hours after IV 50 mg): <5
IL-6 ([1]; 60 hours after IV 50 mg): 7
IL-8 ([1]; 60 hours after IV 50 mg): <5
IL-12 ([1]; 60 hours after IV 50 mg): <5
IL-2 ([1]; 60 hours after IV 50 mg): <5
IL-10 ([1]; 60 hours after IV 50 mg): 74
TNF-α ([1]; 60 hours after IV 50 mg): <5
IL-1β ([1]; 60 hours after IV 50 mg): 54
IL-2R ([1]; 60 hours after IV 50 mg): 425
IFN-γ ([1]; 30 days after IV 50 mg): <5
IL-4 ([1]; 30 days after IV 50 mg): <5
IL-5 ([1]; 30 days after IV 50 mg): <5
IL-6 ([1]; 30 days after IV 50 mg): <5
IL-8 ([1]; 30 days after IV 50 mg): <5
IL-13 ([1]; 30 days after IV 50 mg): <5
IL-12 ([1]; 30 days after IV 50 mg): <5
IL-2 ([1]; 30 days after IV 50 mg): <5
IL-10 ([1]; 30 days after IV 50 mg): 22
TNF-α ([1]; 30 days after IV 50 mg): <5
IL-1β ([1]; 30 days after IV 50 mg): <5
IL-2R ([1]; 30 days after IV 50 mg): 546
response of the cytokine panel to IV administration ([1]; IV dose 10 times stronger than the subcutaneous dosage given previously): no appreciable response
IFN-γ ([1]; Pre and 1 month after IV Use): <5
IL-4 ([1]; Pre and 1 month after IV Use): <5
IL-5 ([1]; Pre and 1 month after IV Use): <5
IL-6 ([1]; Pre and 1 month after IV Use): <5
IL-8 ([1]; Pre and 1 month after IV Use): <5
IL-13 ([1]; Pre and 1 month after IV Use): <5
IL-12 ([1]; Pre and 1 month after IV Use): <5
IL-2 ([1]; Pre and 1 month after IV Use): <5
IL-10 ([1]; Pre and 1 month after IV Use): 22
TNF-α ([1]; Pre and 1 month after IV Use): <5
IL-1β ([1]; Pre and 1 month after IV Use): <5
IL-2R ([1]; Pre and 1 month after IV Use): 546
mice that lived (overall survivability) [2]: 60%
IFN-γ ([3]; 2 Weeks off FPA): <5
IL-4 ([3]; 2 Weeks off FPA): <5
IL-5 ([3]; 2 Weeks off FPA): 6
IL-6 ([3]; 2 Weeks off FPA): 66
IL-8 ([3]; 2 Weeks off FPA): 8
IL-13 ([3]; 2 Weeks off FPA): 8
IL-12 ([3]; 2 Weeks off FPA): 6
IL-2 ([3]; 2 Weeks off FPA): 7
IL-10 ([3]; 2 Weeks off FPA): 230
TNF-α ([3]; 2 Weeks off FPA): <5
IL-1β ([3]; 2 Weeks off FPA): 37
IL-2R ([3]; 2 Weeks off FPA): 255
IFN-γ [3, 4]: 5
IL-4 [3, 4]: <5
IL-5 [3, 4]: 6
IL-6 [3, 4]: 63
IL-8 [3, 4]: 8
IL-13 [3, 4]: 9
IL-12 [3, 4]: 6
IL-2 [3, 4]: 7
IL-10 [3, 4]: 204
TNF-α [3, 4]: <5
IL-1β [3, 4]: 48
IL-2R [3, 4]: 268
IFN-γ ([3]; oral, 1 Week): <5
IL-4 ([3]; oral, 1 Week): <5
IL-5 ([3]; oral, 1 Week): <5
IL-6 ([3]; oral, 1 Week): <5
IL-8 ([3]; oral, 1 Week): <5
IL-13 ([3]; oral, 1 Week): <5
IL-12 ([3]; oral, 1 Week): <5
IL-2 ([3]; oral, 1 Week): <5
IL-10 ([3]; oral, 1 Week): 141
TNF-α ([3]; oral, 1 Week): <5
IL-1β ([3]; oral, 1 Week): 30
IL-2R ([3]; oral, 1 Week): 504
IFN-γ ([3]; oral, 2 weeks): 5
IL-4 ([3]; oral, 2 weeks): <5
IL-5 ([3]; oral, 2 weeks): 5
IL-6 ([3]; oral, 2 weeks): 77
IL-8 ([3]; oral, 2 weeks): 8
IL-13 ([3]; oral, 2 weeks): 6
IL-12 ([3]; oral, 2 weeks): 6
IL-2 ([3]; oral, 2 weeks): 7
IL-10 ([3]; oral, 2 weeks): 183
TNF-α ([3]; oral, 2 weeks): <5
IL-1β ([3]; oral, 2 weeks): 83
IL-2R ([3]; oral, 2 weeks): 254
